Test results taken from PubChem BioAssay (NCI).
Where “and” joins values, the source holds several entries; their conditions need not be identical. Identical values can stand only once.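 Exposure lasted 48 hours, with cells grown in 96-well plates and compounds tested at five concentrations. At the GI50, growth is halved. The concentration for full growth arrest is given as TGI.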

Columns and labels:
Experiment in all cases: growth of human tumour cells (NCI), 48 h
OVCAR-4 ovarian = system: OVCAR-4 ovarian
UO-31 renal = system: UO-31 renal
MALME-3M melanoma = system: MALME-3M melanoma
OVCAR-3 ovarian = system: OVCAR-3 ovarian
SF-539 CNS = system: SF-539 CNS
NCI-H23 lung = system: NCI-H23 lung
SK-MEL-28 melanoma = system: SK-MEL-28 melanoma
ACHN renal = system: ACHN renal
DU-145 prostate = system: DU-145 prostate
MDA-N = system: MDA-N

SMILES | TGI (OVCAR-4 ovarian) | TGI (UO-31 renal) | TGI (MALME-3M melanoma) | TGI (OVCAR-3 ovarian) | TGI (SF-539 CNS) | TGI (NCI-H23 lung) | TGI (SK-MEL-28 melanoma) | TGI (ACHN renal) | TGI (DU-145 prostate) | GI50 (UO-31 renal) | GI50 (SF-539 CNS) | GI50 (ACHN renal) | GI50 (SK-MEL-28 melanoma) | TGI (MDA-N) | GI50 (OVCAR-4 ovarian) | GI50 (MALME-3M melanoma) | GI50 (OVCAR-3 ovarian) | GI50 (DU-145 prostate) | GI50 (NCI-H23 lung)
N/C(=N\N=C/c1c(O)cc(O)cc1O)NO | > 100 µM | > 100 µM | > 100 µM | > 100 µM | > 100 µM | > 100 µM | > 100 µM |  |  |  |  |  |  |  |  |  |  |  | 
Cc1cc2ccccc2n2c1nc1ccc(O)cc12 | > 10 µM |  | > 10 µM | > 10 µM | > 10 µM | > 10 µM | > 10 µM | > 10 µM | > 10 µM |  |  |  |  |  |  |  |  |  | 
Cc1c2cc[n+](C)cc2c(C)c2c1[nH]c1ccc(OCC(F)(F)F)cc12 | > 100 µM | > 100 µM | 8.25 µM | 25 µM and > 100 µM |  | 5.8 µM and 9.49 µM | > 100 µM | > 100 µM |  | 36.6 µM and > 100 µM | 1.73 µM | 12 µM and > 100 µM | 5.31 µM and > 33.4 µM |  |  |  |  |  | 
CCOC(=O)C1=C(N2CCCC2)C(=O)C(C(=O)OCC)C1 (stereo unspecified) | > 100 µM | > 100 µM | > 100 µM | > 100 µM | > 100 µM | > 100 µM | > 100 µM | > 100 µM |  |  |  |  |  | > 100 µM |  |  |  |  | 
C=C1C(=O)OC2C[C@@]3(C)CCCC(=C)C3CC12 (stereo partly specified) | 26.6 µM | 17.1 µM | 13.4 µM | 22.6 µM | 3.7 µM | 26.9 µM | 24 µM | 26.9 µM |  |  |  |  |  |  |  |  |  |  | 
CC(C)(C1=NC(C(C)(C)C)CO1)C1=N[C@@H](C(C)(C)C)CO1 (stereo partly specified) | > 100 µM | > 100 µM | > 100 µM | > 100 µM | > 100 µM | > 100 µM | > 100 µM | > 100 µM |  |  |  |  |  |  |  |  |  |  | 
CSCCC(NC(=O)C(Cc1c[nH]c2ccccc12)NC(=O)CCNC(=O)OC(C)(C)C)C(=O)NC(CC(=O)O)C(=O)NC(Cc1ccccc1)C(N)=O (stereo unspecified) |  |  |  | > 50 µM | > 50 µM |  | > 50 µM |  | > 50 µM |  |  |  |  | > 50 µM |  |  |  |  | 
C/C(N=NS(=O)(=O)c1c(C)cc(C)cc1C)=C1\C=CC=CN1O | > 100 µM | > 100 µM |  | > 100 µM | > 100 µM | > 100 µM | > 100 µM | > 100 µM |  |  |  |  |  |  |  |  |  |  | 
CC(C)(C)N=C1C(=O)C2(C)CCC1C2(C)C (stereo unspecified) | > 100 µM | > 100 µM | > 100 µM | > 100 µM | > 100 µM | > 100 µM | > 100 µM | > 100 µM | > 100 µM |  |  |  |  |  |  |  |  |  | 
COC1OC(C)/C(=N/O)C2OC(C)(C)OC12 (stereo unspecified) | > 100 µM | > 100 µM | > 100 µM | > 100 µM | > 100 µM | > 100 µM | > 100 µM | > 100 µM | > 100 µM |  |  |  |  |  |  |  |  |  | 
O=C(NCc1cn(Cc2cccc(Oc3ccccc3)c2)nn1)c1cccnc1NCc1ccc(Cl)cc1 | > 100 µM | > 100 µM | > 100 µM | 9.55 µM | 5.17 µM | > 100 µM | > 100 µM | > 100 µM | > 100 µM | 3 µM | 2.24 µM | 4.03 µM | 2.95 µM |  | 3.37 µM | 5.69 µM | 3.48 µM | 4 µM | 3.66 µM
O=C(NNC(=O)c1ccncc1)C(=O)Nc1cc(Cl)c(Cl)cc1Cl | > 100 µM | > 100 µM | > 100 µM | > 100 µM | > 100 µM | > 100 µM | > 100 µM | > 100 µM |  |  |  |  |  | > 100 µM |  |  |  |  | 
COc1ccc(-c2csc3c2[N+]2(C)C=CC=C2C3N2CCCC2)cc1 (stereo unspecified) | > 100 µM | > 100 µM | 50.5 µM | 52.6 µM | 57.7 µM | 44.7 µM |  | > 100 µM |  |  |  |  |  | > 100 µM |  |  |  |  | 
COc1ccc(N=C(C)C(C)=Nc2ccc(OC)cc2)cc1 | > 100 µM | > 100 µM | > 100 µM | > 100 µM | > 100 µM | > 100 µM | > 100 µM | > 100 µM | > 100 µM |  |  |  |  |  |  |  |  |  | 
Nc1ccnc2c1ncn2[C@H]1C[C@H](O)[C@@H](CO)O1 | > 100 µM | > 100 µM |  | > 100 µM | > 100 µM | > 100 µM | > 100 µM | > 100 µM | > 100 µM |  |  |  |  | > 100 µM |  |  |  |  | 
C#CC(O)/C=C/C(O)CCCC(O)CC#CC(O)C#CCCCCC(O)/C=C/CCCC(=O)CCCCCCCCCCCCCCCC(O)C(O)C#CC(=O)O (stereo unspecified) | > 25 µM | > 25 µM | > 25 µM |  |  | > 25 µM | > 25 µM | > 25 µM | > 25 µM |  |  |  |  | > 25 µM |  |  |  |  | 
CN1Cc2ccccc2C2(COc3ccccc3C2=O)C1 (stereo unspecified) | > 100 µM | > 100 µM | > 100 µM | > 100 µM | > 100 µM | > 100 µM |  | > 100 µM |  |  |  |  |  |  |  |  |  |  | 
O=Cn1c2ccccc2c2ccccc21 |  | > 100 µM | > 100 µM | > 100 µM | > 100 µM | > 100 µM | > 100 µM | > 100 µM |  |  |  |  |  |  |  |  |  |  | 
